From patent US8946266B2, “Substituted triazole and imidazole derivatives as gamma secretase modulators” (Janssen Pharmaceuticals, Inc., priority 2009, dated 2015)
Like-named read-outs stand apart in the source and are kept apart here.

Experiments:
Aβtotal = assay: γ-secretase-modulating activity, Method 2: Aβtotal Alphalisa in supernatant of SKNBE2 cells carrying APP 695-wild type (Table 3b); assay type: cell-based; settings: overnight, read-out: IC50 Aβtot
Procedure: (§1) Screening was carried out using SKNBE2 cells carrying the APP 695-wild type, grown in Dulbecco's Modified Eagle's Medium/Nutrient mixture F-12 (DMEM/NUT-mix F-12) (HAM) provided by Invitrogen (cat no. 10371-029) containing 5% Serum/Fe supplemented with 1% non-essential amino acids, 1-glutamine 2 mM, Hepes 15 mM, penicillin 50 U/ml (units/ml) en streptomycin 50 μg/ml. Cells were grown to near confluency.
(§2) The screening was performed using a modification of the assay as described in Citron et al (1997) Nature Medicine 3: 67. Briefly, cells were plated in a 384-well plate at 10^4 cells/well in Ultraculture (Lonza, BE12-725F) supplemented with 1% glutamine (Invitrogen, 25030-024), 1% non-essential amino acid (NEAA), penicillin 50 U/ml en streptomycin 50 μg/ml in the presence of test compound at different test concentrations. The cell/compound mixture was incubated overnight at 37° C., 5% CO2. The next day the media were assayed by two sandwich immuno-assays, for Aβ42 and Aβtotal.
(§3) Aβtotal and Aβ42 concentrations were quantified in the cell supernatant using the Aphalisa technology (Perkin Elmer). Alphalisa is a sandwich assay using biotinylated antibody attached to streptavidin coated donorbeads and antibody conjugated to acceptor beads. In the presence of antigen, the beads come into close proximity. The excitation of the donor beads provokes the release of singlet oxygen molecules that trigger a cascade of energy transfer in the acceptor beads, resulting in light emission. To quantify the amount of Aβ42 in the cell supernatant, monoclonal antibody specific to the C-terminus of Aβ42 (JRF/cAβ42/26) was coupled to the receptor beads and biotinylated antibody specific to the N-terminus of Aβ (JRF/AβN/25) was used to react with the donor beads. To quantify the amount of Aβ total in the cell supernatant, monoclonal antibody specific to the N-terminus of Aβ (JRF/AβN/25) was coupled to the receptor beads and biotinylated antibody specific to the mid region of Aβ (biotinylated 4G8) was used to react with the donor beads.
(§4) The sigmoidal dose response curves were analyzed using non-linear regression analysis with percentage of the control plotted against the log concentration of the compound. A 4-parameter equation was used to determine the IC50.
(§5) The IC50 values are shown in Table 3b (Aβtot means Aβtotal).

Aβ42 = assay: γ-secretase-modulating activity, Method 2: Aβ42 Alphalisa in supernatant of SKNBE2 cells carrying APP 695-wild type (Table 3b); assay type: cell-based; settings: overnight
Procedure: as §1, §2, §3
To obtain the values reported in Table 3b, the data were calculated as percentage of the maximum amount of amyloid Beta 42 measured in the absence of the test compound.
as §4, §5

IC50 (Aβtotal) [nM]	IC50 (Aβ42) [nM]	IC50 (Aβtotal; Homo sapiens) [nM]	IC50 (Aβ42; Homo sapiens) [nM]	Structure (SMILES)
> 10000	851	–	–	COc1cc(-c2nc(Cc3ccc(F)cc3C(F)(F)F)nn2C)ccc1-n1cnc(C)c1 [Compound 57]
> 10000	1350	–	–	COc1cc(-c2ncn(-c3ccccc3C(F)(F)F)n2)ccc1-n1cnc(C)c1 [Compound 63]
> 10000	2240	–	–	COc1cc(-c2ncn(-c3cccc(C(F)(F)F)c3)n2)ccc1-n1cnc(C)c1 [Compound 65]
> 10000	257	–	–	COc1cc(-c2nc(-c3ccc(F)cc3)n(C(C)C)n2)ccc1-n1cnc(C)c1 [Compound 83]
> 10000	309	–	–	COc1cc(-c2nc(-c3ccccc3Cl)n(CC3CC3)n2)ccc1-n1cnc(C)c1 [Compound 85]
–	–	7940	501	COc1cc(-c2nc(C(C)(O)c3cccc(C(F)(F)F)c3)n(C(C)C)n2)ccc1-n1cnc(C)c1 (stereo not drawn) [Compound 89]
> 10000	933	–	–	CNc1nc(-c2ccc(-n3cnc(C)c3)c(OC)n2)nn1-c1cccc(C(F)(F)F)c1 [Compound 92]
> 10000	339	–	–	COc1cc(-c2nc(NC3CCCC(C(F)(F)F)C3)n(C)n2)ccc1-n1cnc(C)c1 (stereo not drawn) [Compound 96]
> 10000	288	–	–	Cc1cn(-c2ccc(-c3nc(Nc4ccccc4C)n(C)n3)cc2OC(F)(F)F)cn1 [Compound 98]
> 10000	132	–	–	COc1cc(-c2nc(Nc3ccc(F)cc3)n(C)n2)ccc1-n1cnc(C)c1 [Compound 106]
> 10000	148	–	–	COc1nc(-c2nc(Nc3ccccc3F)n(C)n2)ccc1-n1cnc(C)c1 [Compound 107]
> 10000	117	–	–	COc1cc(-c2nc(Nc3ccc(F)cc3Cl)n(C)n2)ccc1-n1cnc(C)c1 [Compound 109]
> 10000	91	–	–	COc1cc(-c2nc(Nc3cc(F)ccc3F)n(C)n2)ccc1-n1cnc(C)c1 [Compound 110]
9120	129	–	–	COc1cc(-c2nc(Nc3ccc(F)c(F)c3)n(C)n2)ccc1-n1cnc(C)c1 [Compound 112]
> 10000	60	–	–	COc1cc(-c2nc(Nc3cc(F)ccc3Cl)n(C)n2)ccc1-n1cnc(C)c1 [Compound 113]
> 10000	102	–	–	COc1cc(-c2nc(Nc3cc(Cl)cc(Cl)c3)n(C)n2)ccc1-n1cnc(C)c1 [Compound 115]
> 10000	200	–	–	COc1cc(-c2nc(Nc3c(F)cccc3F)n(C)n2)ccc1-n1cnc(C)c1 [Compound 116]
> 10000	89	–	–	COc1cc(-c2nc(Nc3cccc(Cl)c3F)n(C)n2)ccc1-n1cnc(C)c1 [Compound 118]
> 10000	123	–	–	COc1cc(-c2nc(Nc3cc(F)c(F)cc3I)n(C)n2)ccc1-n1cnc(C)c1 [Compound 120]
> 10000	162	–	–	COc1cc(-c2nc(Nc3ccc(Cl)cc3F)n(C)n2)ccc1-n1cnc(C)c1 [Compound 126]

Second part, the compound before the results:

Structure (SMILES)	IC50 (Aβtotal) [nM]	IC50 (Aβ42) [nM]	IC50 (Aβtotal; Homo sapiens) [nM]	IC50 (Aβ42; Homo sapiens) [nM]
COc1cc(-c2nc(-c3ccc(-n4cnc(C)c4)c(OC)c3)n(C)n2)ccc1Cl [Compound 58]	> 10000	> 10000	–	–
COc1cc(-c2nc(/C=C/c3ccc(F)cc3)nn2C)ccc1-n1cnc(C)c1 [Compound 59]	> 10000	2950	–	–
COc1cc(-c2nc(C3(c4ccc(F)cc4)CC3)nn2C)ccc1-n1cnc(C)c1 [Compound 60]	> 10000	8510	–	–
COc1cc(-c2nc(Nc3cc(F)c(F)c(F)c3)nn2C)ccc1-n1cnc(C)c1 [Compound 61]	> 10000	4790	–	–
COc1cc(-c2nc(N[C@@H](C)c3ccc(F)cc3)nn2C)ccc1-n1cnc(C)c1 [Compound 62]	> 10000	3240	–	–
COc1cc(-c2nc(N3C[C@@H](C)O[C@@H](C)C3)nn2C)ccc1-n1cnc(C)c1 [Compound 64]	> 10000	> 10000	–	–
COc1cc(-c2nc(-c3ccccc3C(F)(F)F)n(C(C)C)n2)ccc1-n1cnc(C)c1 [Compound 67]	9550	200	–	–
COc1cc(-c2n[nH]c(C(CCCCCl)c3ccccc3C(F)(F)F)n2)ccc1-n1cnc(C)c1 (stereo not drawn) [Compound 70]	> 10000	309	–	–
COc1cc(-c2nc(N3CCOCC3)n(-c3ccc(F)cc3)n2)ccc1-n1cnc(C)c1 [Compound 71]	–	–	> 10000	1150
COc1cc(-c2nc(-c3cc(C(F)(F)F)ccc3C)n(C)n2)ccc1-n1cnc(C)c1 [Compound 72]	> 10000	288	–	–
COc1cc(-c2nc(-c3cc(C(F)(F)F)ccc3C)n(C(C)C)n2)ccc1-n1cnc(C)c1 [Compound 73]	9550	200	–	–
COc1cc(-c2nc(N3CCC(c4ccccc4)CC3)n(C)n2)ccc1-n1cnc(C)c1 [Compound 77]	8320	145	–	–
COc1cc(-c2nc(N3CCCC(c4ccccc4)C3)n(C(C)C)n2)ccc1-n1cnc(C)c1 (stereo not drawn) [Compound 79]	–	–	6610	36
COc1cc(-c2nc(N3CCc4ccccc4C3)n(C)n2)ccc1-n1cnc(C)c1 [Compound 81]	> 10000	224	–	–
COc1cc(-c2nc(N3CCc4ccccc4C3)n(C(C)C)n2)ccc1-n1cnc(C)c1 [Compound 82]	7760	603	–	–
COc1cc(-c2nc(-c3ccccc3Cl)n(CC(F)(F)F)n2)ccc1-n1cnc(C)c1 [Compound 86]	> 10000	195	–	–
COCCn1nc(-c2ccc(-n3cnc(C)c3)c(OC)c2)nc1-c1ccccc1Cl [Compound 87]	> 10000	759	–	–
COc1cc(-c2nc(-c3cc(Cl)ccc3C)n(C)n2)ccc1-n1cnc(C)c1 [Compound 88]	> 10000	209	–	–
COc1cc(-c2nc(C3(c4cc(C(F)(F)F)ccc4F)CC3)n(C)n2)ccc1-n1cnc(C)c1 [Compound 90]	8910	562	–	–

Structure (SMILES)	IC50 (Aβtotal) [nM]	IC50 (Aβ42) [nM]	IC50 (Aβtotal; Homo sapiens) [nM]	IC50 (Aβ42; Homo sapiens) [nM]
COc1cc(-c2nc(C(=O)c3cccc(C(F)(F)F)c3)n(C(C)C)n2)ccc1-n1cnc(C)c1 [Compound 91]	–	–	> 10000	2340
CNc1nc(-c2ccc(-n3cnc(C)c3)c(OC)c2)nn1-c1cccc(C(F)(F)F)c1 [Compound 93]	–	–	> 10000	282
COc1cc(-c2nc(NC3CCCCC3)n(C)n2)ccc1-n1cnc(C)c1 [Compound 94]	> 10000	871	–	–
COc1cc(-c2nc(NC3CCCC(C(F)(F)F)C3)n(C)n2)ccc1-n1cnc(C)c1 (stereo not drawn) [Compound 95]	> 10000	912	–	–
COc1cc(-c2nc(Nc3ccccc3Cl)n(C)n2)ccc1-n1cnc(C)c1 [Compound 101]	> 10000	41	–	–
COc1cc(-c2nc(Nc3ccccc3Br)n(C)n2)ccc1-n1cnc(C)c1 [Compound 102]	> 10000	56	–	–
COc1cc(-c2nc(Nc3cccc(Cl)c3)n(C)n2)ccc1-n1cnc(C)c1 [Compound 103]	6310	36	–	–
COc1cc(-c2nc(Nc3cccc(F)c3)n(C)n2)ccc1-n1cnc(C)c1 [Compound 104]	8320	115	–	–
COc1cc(-c2nc(Nc3ccc(Cl)cc3)n(C)n2)ccc1-n1cnc(C)c1 [Compound 108]	7760	151	–	–
COc1cc(-c2nc(Nc3cccc(Cl)c3Cl)n(C)n2)ccc1-n1cnc(C)c1 [Compound 119]	> 10000	54	–	–
COc1cc(-c2nc(Nc3cc(F)c(F)cc3Cl)n(C)n2)ccc1-n1cnc(C)c1 [Compound 121]	> 10000	123	–	–
COc1cc(-c2nc(Nc3c(F)ccc(Cl)c3F)n(C)n2)ccc1-n1cnc(C)c1 [Compound 122]	> 15000	66	–	–
COc1cc(-c2nc(Nc3cccc(F)c3F)n(C)n2)ccc1-n1cnc(C)c1 [Compound 124]	> 10000	151	–	–
COc1cc(-c2nc(Nc3c(F)ccc(Br)c3F)n(C)n2)ccc1-n1cnc(C)c1 [Compound 127]	> 10000	66	–	–
COc1cc(-c2nc(Nc3cc(C(F)(F)F)ccc3C)n(C)n2)ccc1-n1cnc(C)c1 [Compound 131]	6310	8	–	–
COc1cc(-c2nc(Nc3cccc(C(F)(F)F)c3)n(C(C)C)n2)ccc1-n1cnc(C)c1 [Compound 133]	2340	31	–	–
COc1cc(-c2nc(Nc3ccc(C(F)(F)F)cc3F)n(C)n2)ccc1-n1cnc(C)c1 [Compound 134]	> 10000	110	–	–
CCn1nc(-c2ccc(-n3cnc(C)c3)c(OC)c2)nc1Nc1cc(C(F)(F)F)ccc1F [Compound 135]	> 10000	26	–	–
